What was measured:
Xanthine oxidase = target: T1, Xanthine oxidase (Mus musculus, UniProt Q00519); experiment: Xanthine oxidase inhibition (in vitro), mouse small intestine xanthine oxidase solution, HPLC of uric acid; format: biochemical, mouse (ICR strain mice; details: xanthine substrate, incubated at 37° C. for 5 minutes; HPLC UV 292 nm
T1 construct: The small intestine was homogenized in 4-fold volume of cooled phosphate buffered saline solution (PBS) and then centrifuged; from tissue; host or cells: small intestine of ICR strain mice; dialysed supernatant of a 105,000 g centrifugation
Method: (1) Preparation of Xanthine Oxidase Solution
ICR strain mice were decapitated and the small intestine of each mouse was rapidly perfused with cooled physiological saline solution and removed. The small intestine was homogenized in 4-fold volume of cooled phosphate buffered saline solution (PBS) and then centrifuged at 105,000 g for 60 minutes. The supernatant fluid was dialyzed overnight against PBS. The dialyzed solution thus prepared was stored at -20° C. until used.
(2) Preparation of the Solution Containing the Present Compound
The compound of this invention was dissolved in DMSO (200 μl) and 2N NaOH (100 μl), and then PBS was added to prepare a solution (25 ml) containing 10^-3 M of the compound of this invention. This solution was diluted with PBS to prepare solutions containing the compound in the concentration of 10^-4, 10^-5, 10^-6, 10^-7, 10^-8, 10^-9, 10^-10, and 10^-11 M, respectively.
(3) Method for the Measurement
The assay mixture, consisted of the composition mentioned below, was incubated at 37° C. for 5 minutes. The reaction was stopped by heating in boiling water for one minute. Twenty microliters of the supernatant was analyzed by high performance liquid chromatography (HPLC) under the conditions mentioned below.
Xanthine oxidase solution (diluted in 4-folds with PBS): 200 μl
Solution containing the present compound: 200 μl
Column: osmosil packed column (.phi. 4. mm×150 mm, 5C18×300)
(§1) Eluting solution: 10 mM phosphate buffer (pH 6.0)
(§2) Retention time: 2.4 minutes (uric acid)
(4) Percent Inhibition of the Compound Against Xanthine Oxidase
The percent inhibition was calculated by the following equation. [formula]
As to each of the solutions containing the present compound as prepared in the above (2), the percent inhibition was calculted, and IC50 values were obtained from a plot of the percent inhibition against the log of the concentration of the compound of this invention.

uric acid in serum = experiment: Lowering effect of test compound on the level of uric acid in serum (in vivo, oral administration); design: species or system mouse (normal male ICR mice); details: Mus musculus, 4 hours after administration, male ICR mice, suspended in 0.5% CMC-Na, read-out: in vivo Lowering rate (%) of uric acid in serum (in 4 hours)
Method: Experiment 2 (In Vivo: Oral Administration)
(1) Animals, Method of Administration and Sampling of Serum
Normal male ICR mice (weighting about 30 g), were provided normal diet and tap water ad libitum. A test compound suspended in 0.5% CMC-Na was administered orally to the mice (each group: 6 mice) in a dose of 5 mg/kg.
(2) Measurement of Amount of Uric Acid in Serum
To the serum (200 μl) was added 10% perchloric acid (100 μl), and the mixture was centrifuged. To the supernatant fluid (100 μl) was added 0.2M Na2 HPO4 (200 μl), and the mixture (20 μl) was analyzed by HPLC to measure the amount of uric acid. The HPLC was carried out under the following conditions.
Column: Cosmosil packed column (.phi. 4.6 mm×150 mm, 5C18 -300)
as §1, §2
(3) Lowering Effect of Test Compound on the Level of Uric Acid in Serum
The lowering rate of uric acid in serum was calculated by the following equation. [formula]

T1 sequence (Q00519 whole entry): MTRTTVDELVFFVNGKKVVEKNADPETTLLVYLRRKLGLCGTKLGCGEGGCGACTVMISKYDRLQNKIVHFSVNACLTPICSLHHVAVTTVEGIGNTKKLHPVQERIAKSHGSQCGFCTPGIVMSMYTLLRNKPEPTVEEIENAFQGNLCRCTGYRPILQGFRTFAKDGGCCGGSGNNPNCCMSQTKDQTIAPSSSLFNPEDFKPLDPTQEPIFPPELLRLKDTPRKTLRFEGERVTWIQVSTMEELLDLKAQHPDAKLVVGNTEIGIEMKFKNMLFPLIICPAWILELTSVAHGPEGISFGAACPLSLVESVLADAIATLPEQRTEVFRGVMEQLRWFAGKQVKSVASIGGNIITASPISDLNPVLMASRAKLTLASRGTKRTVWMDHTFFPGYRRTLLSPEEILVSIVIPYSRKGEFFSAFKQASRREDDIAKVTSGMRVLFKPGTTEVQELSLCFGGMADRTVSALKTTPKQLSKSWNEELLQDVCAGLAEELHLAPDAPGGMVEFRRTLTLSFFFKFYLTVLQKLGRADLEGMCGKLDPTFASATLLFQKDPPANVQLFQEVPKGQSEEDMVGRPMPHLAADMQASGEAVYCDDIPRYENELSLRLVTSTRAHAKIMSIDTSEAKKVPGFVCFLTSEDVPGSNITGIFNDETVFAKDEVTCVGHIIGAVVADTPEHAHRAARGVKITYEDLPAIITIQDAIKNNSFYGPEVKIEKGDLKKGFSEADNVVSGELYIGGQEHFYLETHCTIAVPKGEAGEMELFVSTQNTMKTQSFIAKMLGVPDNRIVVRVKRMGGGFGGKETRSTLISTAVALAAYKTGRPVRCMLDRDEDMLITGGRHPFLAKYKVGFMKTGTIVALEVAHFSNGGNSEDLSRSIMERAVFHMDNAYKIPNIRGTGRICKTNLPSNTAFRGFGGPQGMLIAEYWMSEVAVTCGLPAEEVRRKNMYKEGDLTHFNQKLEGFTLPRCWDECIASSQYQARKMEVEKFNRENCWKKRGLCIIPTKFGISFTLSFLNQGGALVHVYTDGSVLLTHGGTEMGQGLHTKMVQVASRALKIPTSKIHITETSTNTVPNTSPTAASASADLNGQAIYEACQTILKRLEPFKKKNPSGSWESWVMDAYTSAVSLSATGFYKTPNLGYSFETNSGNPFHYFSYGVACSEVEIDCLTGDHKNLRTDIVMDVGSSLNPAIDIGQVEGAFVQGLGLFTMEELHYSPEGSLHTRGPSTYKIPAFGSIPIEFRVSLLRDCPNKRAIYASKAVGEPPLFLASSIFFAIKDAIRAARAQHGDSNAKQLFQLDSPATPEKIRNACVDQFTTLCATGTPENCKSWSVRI

IC50 (Xanthine oxidase) | Compound | inhibition in vivo at 5 mg/kg (uric acid in serum)
2.4 nM | Cc1cc(-c2cnn3c(O)ncnc23)ccc1[S+]([O-])c1ccccc1 (stereo not shown) [Example 171, 4-Hydroxy-8-(3-methyl-4-phenylsulfinylphenyl)pyrazolo[1,5-a]-1,3,5-triazine] | 73.6%
25 nM | COc1cc(-c2cnn3c(O)ncnc23)ccc1[S+]([O-])c1ccccc1 (stereo not shown) [Example 187, 4-Hydroxy-8-(3-methoxy-4-phenylsulfinylphenyl)pyrazolo[1,5-a]-1,3,5-triazine] | 63.9%

From patent publication US4824834A, “Pyrazolotriazine compounds” (Otsuka Pharmaceutical Company, Limited, priority 1986, dated 1989)
